Patent publication US20220241314A1, “COMPOSITIONS AND METHODS FOR TREATMENT OF HEPATITIS B VIRUS INFECTION” (priority 2019, published 2022)
{ppp} = triphosphate

B1: poly-U/UC PAMP: ~100 nt PAMP motif from the HCV genome comprising 5′ppp and the poly U/UC region, recognized by RIG-I; formulated in liposome (nucleic acid)
chain: GGCCAUCCUGUUUUUUUCCCUUUUUUUUUUUCUUUUUUUUUUUUUUUUUUUUUUUUUUUUUUUUUUCUCCUUUUUUUUUCCUCUUUUUUUCCUUUUCUUUCCUUU
modifications: RNA, 5' {ppp}, backbone and methylation of C not given here; formulated in liposome
notes: ~100 nt PAMP motif from the HCV genome comprising 5′ppp and the poly U/UC region, recognized by RIG-I; formulated in liposome

Key:
HBV cccDNA [1] = assay: cccDNA levels in HBV-infected RIG-I or MDA5 knockout HepG2-hNTCP cells (Southern blot); assay type: cell-based, HBV (Genotype D); conditions: HepG2-hNTCP-NT and HepG2-hNTCP-MKO cells, single treatment at 1 dpi, harvested 3 dpi
Description: FIGS. 6A-6D illustrate that F7 and poly-U/UC PAMP specifically signal IRF3 activation through RIG-I to suppress HBV cccDNA. (6A) F7 was administered for 24 hours to HepG2-hNTCP-NT (expressing non-targeting guide RNA), RKO (RIG-I knockout expressing RIG-I-targeting guide RNA), and MKO (MDA5-knock out expressing MDA5-targeting guide RNA). Cells were harvested and analyzed by immunoblot. The levels of protein expression by p-IRF3 (S386 phosphorylated, active IRF3), IRF3 (total IRF), IFIT1, RIG-I, and MDA5 relative to the expression level of tubulin were determined using respective antibodies. (6B) HepG2-hNTCP-NT, RKO, and MKO cells were treated with 100 ng,/ml of X-RNA or 100 ng/ml or 200 ng/ml of poly-U/UC PAMP for 24 hr. Cells were harvested and analyzed by immunoblot as in (6A). (6C and 6D) Cells were infected with HBV at moi of 1000 Geq/cell. After 24 hour cultures were treated with DMSO (−; negative control), CsA (treatment control), (6C) 10 μM) or F7 or (6D) X RNA or poly-U/UC PAMP. Three days later the cells were harvested, Hirt extracts prepared and subjected to Southern blot analysis using as HBV-DNA probe. The positions of mass markers are indicated. Values beneath each lane show percent cccDNA remaining compared to control treatment. […]

HBV cccDNA [2] = assay: Decay kinetics of established cccDNA and HBsAg secretion under treatment from 3 dpi to 20 dpi; assay type: cell-based, HBV (Genotype D); conditions: HepG2-hNTCP; for production and secretion of HBsAg / cccDNA levels over treatment time course (Southern blot, qPCR): treatment from 3 dpi through 20 dpi; for cccDNA levels over treatment time course (Southern blot, qPCR) / delay before cccDNA starts decreasing (τ) / half-life of cccDNA (t1/2): ETV 500 nM, F7 10 μM, poly-U/UC 100 ng/ml; for delay before cccDNA starts decreasing (τ) / half-life of cccDNA (t1/2): treatment from 3 dpi, model fit of RT-qPCR data, three replicates
Description: (5A) HBV infection and treatment schedule. On day 0 HepG2-hNTCP cells were infected with HBV at moi of 1000 Geq/cell, incubated for 24 hr, and media was replaced. On day three the cells were harvested or treated with DMSO, ETV (500 nM), F7 (10 μM), poly-U/UC (100 ng/ml), or with ETC combination with F7 or poly-U/UC, PAMP. Cells were harvested at the indicated points over a 20-day time course. (5B), (5C) DNA was isolated by Hirt extract and subjected to Southern blot analysis using an HBV-specific DNA probe. Percentage values below each lane indicate the relative amount of cccDNA compared to day three control prior to each treatment. The positions of mass markers are indicated. (5D) cccDNA levels were measured by RT-qPCR. Relative cccDNA values to mitochondrial DNA (MT-CO3) are shown. Statistical significance was determined using Student's t test. Data are presented as mean standard deviation (SD), *P<0.01, **P<0.005, ***P<0.001 and ns=non-significant (E) Half-life of cccDNA from RT-qPCR analyses was estimated from the simultaneous fitting of three replicates under each treatment strategy. C(t) is the % values of cccDNA at time ‘t’ post-treatment, C(0) is the % values of cccDNA at the start of the treatment. (5F) HBsAg across the time course for each treatment series. Statistical significance as determined using Student's t test. Data are presented as mean standard deviations (SD), **P<0.005, and ns=non-significant.
ETV is a nucleoside analog that prevents the viral reverse transcription and replication of new synthesized HBV DNAs, thereby preventing the replenishment of cccDNA by de novo formation. ETV was applied to HBV-infected cultures at a 100-fold IC50 (Langley, D. R., et al. (2007). Inhibition of Hepatitis B Virus Polymerase by Entecavir. Journal of virology 81, 3992-4001) thereby allowing for the measurement of cccDNA half-life under conditions in which levels are sustained only from the initial cccDNA pool. Cells were then harvested over a treatment time course, and DNA extracts were analyzed by Southern blot and qPCR assay. […] J Hepatol 69, 1231-1241). […] Enhanced cccDNA decay kinetics by F7 treatment was also confirmed by RT-PCR analysis (FIG. 5D). […] Thus, F7 and poly-U/UC PAMP impart the therapeutic decay of established cccDNA.
Reverse transcription quantitative real time qPCR (RT-qPCR) analysis: Total cellular RNAs were extracted from cells using TRIZOL reagent and the manufacturers protocol (Invitrogen). cDNA was synthesized from the purified RNA by both random and oligo (dT) priming using iScript select cDNA synthesis kit (Biorad, Inc.). For HBV cccDNA expression analysis, total DNA was extracted using the DNeasy kit (QIAGEN). For selective cccDNA PCR analysis, isolated DNAs were treated with 10 Units of T5 exonuclease (NEB) for 30 min in 10 μl of reaction volume in 37° C., followed by heat-inactivation at 95° C. for 5 min and 4-fold dilution with Nuclease-free water. For extra-cellular HBV DNA quantification, an external HBV plasmid standard was used to program the PCR (Ko, C., et al. (2018), supra).

Molecule | cccDNA levels (HBV cccDNA [1]) | production and secretion of HBsAg (HBV cccDNA [2]) | cccDNA levels over treatment time course (Southern blot, qPCR) (HBV cccDNA [2]) | delay before cccDNA starts decreasing (τ) (HBV cccDNA [2]) [days] | half-life of cccDNA (t1/2) (HBV cccDNA [2]) [h]
O=C(Nc1ccc2nc(NC(=O)c3ccc4ccccc4c3)sc2c1)c1ccccc1 [F7, N-(6-benzamido-1,3-benzothiazol-2-yl)naphthalene-2-carboxamide] | reduced cccDNA levels | suppressed HBsAg secretion | stimulated the decay of cccDNA | 4.0 | 209
B1 | cccDNA was suppressed | suppressed HBsAg secretion | reduced the cccDNA abundance | 3.8 | 185
